As a reminder, the pest or weed control is how far the test organism was held down. Low readings indicate weak suppression, high ones strong suppression. What is called inhibition is the change of the read-out against control, counted positive when it falls. Low readings indicate a response near the control, high ones a response far below the control.

The source of these data is patent US8030498B2, “Benzoylpyrazole compounds and herbicides containing them” (Ishihara Sangyo Kaisha, Ltd., priority 2005, dated 2011).

The test system of test [1] is barnyardgrass (Echinochloa crus-galli L.). Description: Test Example 1: foliar treatment, growth inhibition rate, barnyardgrass. It counts as in vivo. The note with it: 31 g/ha active ingredient, visually observed 17th to 23rd day after application; for pest or weed control at 31 g/ha: Echinochloa crus-galli. Summed up: (§1)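 Plants grown in upland soil in pots were sprayed on the foliage at set leaf stages (corn 2.0–3.5, greenfoxtail 1.0–3.0, rice 1.0–2.5, wheat 1.7–3.4 leaves) with wettable powder or emulsifiable concentrate formulations diluted in water at 500 L/ha plus 0.1 vol % spreader. Growth inhibition was scored visually 17–23 days later.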

The test system of a further test is corn. The test is described as follows: Test Example 2: soil application on the day after sowing, growth inhibition rate, corn. The test is classed as in vivo, Zea mays L. The note with it: 250 g/ha active ingredient, observed on 19th to 24th day; for inhibition at 250 g/ha: Zea mays. An excerpt:
(§2) Upland field soil was put into a 1/170,000 hectare pot, and seeds of various plants (barnyardgrass, crabgrass, greenfoxtail, redroot pigweed, prickly sida, velvetleaf, rice, wheat, corn and soybean) were sown. On the day after sowing, wettable powders or emulsifiable concentrates of the compounds of the present invention prepared in accordance with a conventional preparation method, were weighed so that the active ingredients became the prescribed amounts, and diluted with water in an amount corresponding to 500 liter per 1 hectare, followed by soil application with a small sprayer. On the 19th to 24th day after the application, the state of growth of the respective plants was visually observed, and the herbicidal effect was evaluated in accordance with a growth inhibition rate (%) of from 0 (equivalent to the non-treated area) to 100% (complete kill).

The test system of the next test is redroot pigweed. Description: Test Example 2: soil application on the day after sowing, growth inhibition rate, redroot pigweed. The test is classed as in vivo, Amaranthus retroflexus L. The note with it: 250 g/ha active ingredient, observed on 19th to 24th day; for inhibition at 250 g/ha: Amaranthus retroflexus.
Description: as §2

For the next test, the system named is velvetleaf. The test is described as follows: Test Example 2: soil application on the day after sowing, growth inhibition rate, velvetleaf. It counts as in vivo, Abutilon theophrasti MEDIC. The note with it: 250 g/ha active ingredient, observed on 19th to 24th day; for inhibition at 250 g/ha: Abutilon theophrasti.
Description: as §2

Test [2] deals with velvetleaf (Abutilon theophrasti MEDIC.). Description: Test Example 1: foliar treatment, growth inhibition rate, velvetleaf. The test is classed as in vivo. The note with it: 31 g/ha active ingredient, visually observed 17th to 23rd day after application; for pest or weed control at 31 g/ha: Abutilon theophrasti. Summed up:
as §1

A further test concerns barnyardgrass. The test is described as follows: Test Example 2: soil application on the day after sowing, growth inhibition rate, barnyardgrass. The note with it: 250 g/ha active ingredient, observed on 19th to 24th day; for inhibition at 250 g/ha: Echinochloa crus-galli. It counts as in vivo, Echinochloa crus-galli L.
Description: as §2

The subject of another test is wheat. Description: Test Example 2: soil application on the day after sowing, growth inhibition rate, wheat. It counts as in vivo, Triticum spp. The note with it: Triticum aestivum, 250 g/ha active ingredient, observed on 19th to 24th day.
Description: as §2

Test [3] concerns prickly sida (Sida spinosa L.). Description: Test Example 1: foliar treatment, growth inhibition rate, prickly sida. The test is classed as in vivo. The note with it: 31 g/ha active ingredient, visually observed 17th to 23rd day after application. Put shortly:
(§3)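 Visual scoring of growth inhibition, 0% (untreated) to 100% (complete kill), on days 17–23 following post-emergence spray of formulated compound in water (500 L/ha, 0.1 vol % spreader); plants treated at set leaf stages, e.g. corn 2.0–3.5, wheat 1.7–3.4.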

A further test concerns rice (Oryza sativa L.). The test is described as follows: Test Example 1: foliar treatment, growth inhibition rate, rice. The test is classed as in vivo. The note with it: 31 g/ha active ingredient, visually observed 17th to 23rd day after application; for pest or weed control at 31 g/ha: Oryza sativa. Summed up: (§4)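 Potted upland soil; compounds as wettable powders or emulsifiable concentrates diluted in water at 500 L/ha plus 0.1 vol % spreader, foliar-sprayed at defined leaf stages (rice 1.0–2.5, wheat 1.7–3.4, corn 2.0–3.5, greenfoxtail 1.0–3.0). Growth inhibition (0–100%) scored visually 17–23 days after application.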

The test system of another test is crabgrass. Description: Test Example 2: soil application on the day after sowing, growth inhibition rate, crabgrass. The test is classed as in vivo, Digitaria sanguinalis L. The note with it: 250 g/ha active ingredient, observed on 19th to 24th day; for inhibition at 250 g/ha: Digitaria sanguinalis.
Description: as §2

The test system of test [4] is redroot pigweed (Amaranthus retroflexus L.). Description: Test Example 1: foliar treatment, growth inhibition rate, redroot pigweed. It counts as in vivo. The note with it: 31 g/ha active ingredient, visually observed 17th to 23rd day after application. Summed up:
as §3

Test [5] has as its system crabgrass (Digitaria sanguinalis L.). The test is described as follows: Test Example 1: foliar treatment, growth inhibition rate, crabgrass. The test is classed as in vivo. The note with it: 31 g/ha active ingredient, visually observed 17th to 23rd day after application; for pest or weed control at 31 g/ha: Digitaria sanguinalis. Put shortly:
as §3

In another test the test system is prickly sida. Description: Test Example 2: soil application on the day after sowing, growth inhibition rate, prickly sida. The test is classed as in vivo, Sida spinosa L. The note with it: 250 g/ha active ingredient, observed on 19th to 24th day; for inhibition at 250 g/ha: Sida spinosa.
Description: as §2

The next test deals with corn (Zea mays L.). Description: Test Example 1: foliar treatment, growth inhibition rate, corn. The test is classed as in vivo. The note with it: 31 g/ha active ingredient, visually observed 17th to 23rd day after application; for pest or weed control at 31 g/ha: Zea mays. Summed up: as §4
The next test deals with wheat (Triticum spp.). Description: Test Example 1: foliar treatment, growth inhibition rate, wheat. The test is classed as in vivo. The note with it: 31 g/ha active ingredient, visually observed 17th to 23rd day after application; for pest or weed control at 31 g/ha: Triticum. Put shortly:
as §4

Test [6] concerns greenfoxtail (Setaria viridis L.). The test is described as follows: Test Example 1: foliar treatment, growth inhibition rate, greenfoxtail. It counts as in vivo. The note with it: 31 g/ha active ingredient, visually observed 17th to 23rd day after application; for pest or weed control at 31 g/ha: Setaria viridis. Summed up: as §4
In a further test the test system is rice. The test is described as follows: Test Example 2: soil application on the day after sowing, growth inhibition rate, rice. The test is classed as in vivo, Oryza sativa L. The note with it: 250 g/ha active ingredient, observed on 19th to 24th day; for inhibition at 250 g/ha: Oryza sativa.
Description: as §2

In a further test the test system is greenfoxtail. Description: Test Example 2: soil application on the day after sowing, growth inhibition rate, greenfoxtail. The test is classed as in vivo, Setaria viridis L. The note with it: 250 g/ha active ingredient, observed on 19th to 24th day; for inhibition at 250 g/ha: Setaria viridis.
Description: as §2

The test system of test [7] is soybean (Glycine max Merr.). Description: Test Example 1: foliar treatment, growth inhibition rate, soybean. The test is classed as in vivo. The note with it: 31 g/ha active ingredient, visually observed 17th to 23rd day after application. Summed up:
as §3

Another test concerns soybean. The test is described as follows: Test Example 2: soil application on the day after sowing, growth inhibition rate, soybean. The note with it: 250 g/ha active ingredient, observed on 19th to 24th day. It counts as in vivo, Glycine max Merr.
Description: as §2

Regarding `CCSC(=O)Oc1c(C(=O)c2ccc(S(C)(=O)=O)c(C(=O)OC)c2C)cnn1CC` [Compound No. 2, 1-ethyl-5-(ethylthio)carbonyloxypyrazol-4-yl 3-(methoxycarbonyl)-2-methyl-4-(methylsulfonyl)phenyl ketone], the pest or weed control at 31 g/ha worked out at 95% in [1]; 95% in test [2]; 95% in the test with rice (Oryza sativa L.); 90% in [5]; 10% with corn (Zea mays L.); 30% in the test on wheat (Triticum spp.). Besides, in test [6], the pest or weed control at 31 g/ha is 100%. Also, the inhibition at 250 g/ha with corn was 0%; in the test with redroot pigweed it was 100%; in the test on velvetleaf it was 60%; in the test with barnyardgrass, 100%; in the test with wheat, 40%; with crabgrass, 100%. The results for the inhibition at 250 g/ha in the test on prickly sida, in the test with rice and in the test with greenfoxtail were 95%, 100% and 98%, respectively. Besides, in test [3], the “Growth inhibition rate (%) Prickly sida” value was determined as 95%. Moreover, the “Growth inhibition rate (%) redroot pigweed” value in test [4] is recorded as 95%.

For the compound `CCn1ncc(C(=O)c2ccc(S(C)(=O)=O)c(OCCOC)c2C)c1OC(=O)SC` [compound 234], the “Growth inhibition rate (%) Barnyardgrass” value (in test [1]; in the test with barnyardgrass) was 100% in each case. For the same compound, the “Growth inhibition rate (%) Corn” value in the test with corn and with corn (Zea mays L.) was 0% in each case. Also, the “Growth inhibition rate (%) Soybean” value is 100% in test [7] and 0% with soybean. Further, the “Growth inhibition rate (%) redroot pigweed” value (with redroot pigweed; in test [4]) was 100% throughout. The results for the “Growth inhibition rate (%) Velvetleaf” value (in the test on velvetleaf; in test [2]) were 70% and 100%, respectively. Also, the “Growth inhibition rate (%) Prickly sida” value was 50% in test [3] and 20% in the test on prickly sida. Moreover, the “Growth inhibition rate (%) Rice” value with rice (Oryza sativa L.) came to 90%; in the test on rice it was 100%. The “Growth inhibition rate (%) Crabgrass” value (in the test on crabgrass; in test [5]) was 100% throughout. In the test on wheat (Triticum spp.), the “Growth inhibition rate (%) Wheat” value is reported as 0%. Moreover, the “Growth inhibition rate (%) Greenfoxtail” value (in test [6]; with greenfoxtail) was 100% each time.

`CCSC(=O)Oc1c(C(=O)c2ccc(S(C)(=O)=O)c(OCCOC)c2C)cnn1CC` [Compound No. 16, 5-(ethylthio)carbonyloxy-1-ethylpyrazol-4-yl 3-(2-methoxyethoxy)-2-methyl-4-(methylsulfonyl)phenyl ketone]: the pest or weed control at 31 g/ha came to 100% in [1]; 100% in test [2]; 90% in the test on rice (Oryza sativa L.); 100% in test [5]; 0% in the test on corn (Zea mays L.); 0% with wheat (Triticum spp.). Moreover, in [6], the pest or weed control at 31 g/ha is 100%. In addition, the inhibition at 250 g/ha came out at 0% in the test with corn; 100% in the test on redroot pigweed; 0% in the test with velvetleaf; 100% in the test with barnyardgrass; 0% in the test with wheat; 100% in the test with crabgrass. For the same compound, the inhibition at 250 g/ha with prickly sida worked out at 10%; in the test on rice, 98%; with greenfoxtail, 98%. In addition, the “Growth inhibition rate (%) Soybean” value in test [7] is 95%. The “Growth inhibition rate (%) Prickly sida” value in test [3] is recorded as 40%.
